“Also recorded” adds a separate entry of the source.
Legend:
chronic mild stress rats = test: Chronic mild stress model in rats, serum marker analysis; conditions: CMS rats; for reversal of stress-induced alterations in serum markers: versus non-stressed controls;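 on all read-outs here: terminal serum drawn from the tail of rats 24 h after the final drug dose, profiled within a panel of roughly 60 blood markers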
Procedure: At the end of the present study, terminal serum samples were collected for marker analysis to evaluate the effects of stress with and without drug on the levels of about 60 blood markers.
Serum samples were withdrawn from the tail, without stunning, during the daytime (09:00-17:00) 24 hrs after the last drug injection. Blood was collected into BD vacutainers containing clot activator and gel for serum preparation, inverted 5 times and maintained on ice until centrifugation at 3000 rpm for 10 min at 4° C. Serum was decanted, placed on ice, and at the end of the day stored at −80° C.

formalin pain model = conditions: U.S. Patent Application Publication No. 2005/0288371; cited from earlier work
[1] = 1st study, 5 mg/kg, serum, median
[2] = 2nd study, 10 mg/kg, serum, median

CN(C)CCC[C@@]1(c2ccc(F)cc2)OCc2cc(C#N)ccc21 [ESC, Escitalopram, reference compound]
Apo A1 (Apolipoprotein A1) (chronic mild stress rats; [1]): 8.40 µg/mL | CRP (C Reactive Protein) (chronic mild stress rats; [1]): 1060.00 µg/mL | Eotaxin (chronic mild stress rats; [1]): 1300.00 pg/mL | FGF-9 (Fibroblast Growth Factor-9) (chronic mild stress rats; [1]): 0.90 ng/mL | GCP-2 (Granulocyte Chemotactic Protein-2) (chronic mild stress rats; [1]): 0.21 ng/mL | Growth Hormone (chronic mild stress rats; [1]): 1.38 ng/mL | IL-1alpha (Interleukin-1alpha) (chronic mild stress rats; [1]): 15.40 pg/mL | IL-2 (Interleukin-2) (chronic mild stress rats; [1]): 38.80 pg/mL | IL-4 (Interleukin-4) (chronic mild stress rats; [1]): 51.70 pg/mL | IL-7 (Interleukin-7) (chronic mild stress rats; [1]): 0.22 ng/mL | IL-10 (Interleukin-10) (chronic mild stress rats; [1]): 317.00 pg/mL | IL-11 (Interleukin-11) (chronic mild stress rats; [1]): 166.00 pg/mL | IP-10 (Inducible Protein-10) (chronic mild stress rats; [1]): 194.00 pg/mL | IgA (Immunoglobulin A) (chronic mild stress rats; [1]): 6.54 µg/mL | Insulin (chronic mild stress rats; [1]): 11.30 ulU/mL | LIF (Leukemia Inhibitory Factor) (chronic mild stress rats; [1]): 67.20 pg/mL | Leptin (chronic mild stress rats; [1]): 2.62 ng/mL | Lymphotactin (chronic mild stress rats; [1]): 68.00 pg/mL | M-CSF (Macrophage-Colony Stimulating Factor) (chronic mild stress rats; [1]): 941.00 ng/mL | MCP-1 (Monocyte Chemoattractant Protein-1) (chronic mild stress rats; [1]): 1500.00 pg/mL | MCP-3 (Monocyte Chemoattractant Protein-3) (chronic mild stress rats; [1]): 885.00 pg/mL | MCP-5 (Monocyte Chemoattractant Protein-5) (chronic mild stress rats; [1]): 0.87 pg/mL | MIP-1alpha (Macrophage Inflammatory Protein-1alpha) (chronic mild stress rats; [1]): 244.00 ng/mL | MIP-1gamma (Macrophage Inflammatory Protein-1gamma) (chronic mild stress rats; [1]): 11.50 ng/mL | MIP-2 (Macrophage Inflammatory Protein-2) (chronic mild stress rats; [1]): 0.09 pg/mL | MPO (Myeloperoxidase) (chronic mild stress rats; [1]): 54.60 ng/mL | NGAL (Lipocalin-2) (chronic mild stress rats; [1]): 0.22 ng/mL | Osteopontin (chronic mild stress rats; [1]): 310.00 ng/mL | SAP (Serum Amyloid P) (chronic mild stress rats; [1]): 178.00 µg/mL | SCF (Stem Cell Factor) (chronic mild stress rats; [1]): 16.95 pg/mL | SGOT (Serum Glutamic-Oxaloacetic Transaminase) (chronic mild stress rats; [1]): 0.31 µg/mL | TIMP-1 (Tissue Inhibitor of Metalloproteinase Type-1) (chronic mild stress rats; [1]): 0.22 ng/mL | TPO (Thrombopoietin) (chronic mild stress rats; [1]): 142.00 ng/mL | Tissue Factor (chronic mild stress rats; [1]): 0.15 ng/mL | VCAM-1 (Vascular Cell Adhesion Molecule-1) (chronic mild stress rats; [1]): 409.00 ng/mL | VEGF (Vascular Endothelial Cell Growth Factor) (chronic mild stress rats; [1]): 106.00 pg/mL | reversal of stress-induced alterations in serum markers (chronic mild stress rats): inactive at most of these changes

Oc1noc2c1CCNC2 [GBX, 4,5,6,7-tetrahydroisoxazolo [5,4-c] pyridine-3-ol]
Apo A1 (Apolipoprotein A1) (chronic mild stress rats; [1]): 8.20 µg/mL | CRP (C Reactive Protein) (chronic mild stress rats; [1]): 1140.00 µg/mL | Cystatin-C (chronic mild stress rats; [1]): 1165.00 ng/mL | FGF-9 (Fibroblast Growth Factor-9) (chronic mild stress rats; [1]): 0.59 ng/mL | GCP-2 (Granulocyte Chemotactic Protein-2) (chronic mild stress rats; [1]): 0.19 ng/mL | Growth Hormone (chronic mild stress rats; [1]): 7.67 ng/mL | IL-1alpha (Interleukin-1alpha) (chronic mild stress rats; [1]): 11.30 pg/mL | IL-2 (Interleukin-2) (chronic mild stress rats; [1]): 31.30 pg/mL | IL-4 (Interleukin-4) (chronic mild stress rats; [1]): 29.60 pg/mL | IL-7 (Interleukin-7) (chronic mild stress rats; [1]): 0.16 ng/mL | IL-10 (Interleukin-10) (chronic mild stress rats; [1]): 249.00 pg/mL | IL-11 (Interleukin-11) (chronic mild stress rats; [1]): 128.00 pg/mL | IL-18 (Interleukin-18) (chronic mild stress rats; [1]): 0.07 ng/mL | IP-10 (Inducible Protein-10) (chronic mild stress rats; [1]): 138.00 pg/mL | IgA (Immunoglobulin A) (chronic mild stress rats; [1]): 5.91 µg/mL | Insulin (chronic mild stress rats; [1]): 8.88 ulU/mL | LIF (Leukemia Inhibitory Factor) (chronic mild stress rats; [1]): 53.90 pg/mL | Leptin (chronic mild stress rats; [1]): 2.59 ng/mL | Lymphotactin (chronic mild stress rats; [1]): 53.80 pg/mL | M-CSF (Macrophage-Colony Stimulating Factor) (chronic mild stress rats; [1]): 865.00 ng/mL | MCP-1 (Monocyte Chemoattractant Protein-1) (chronic mild stress rats; [1]): 1185.00 pg/mL | MCP-3 (Monocyte Chemoattractant Protein-3) (chronic mild stress rats; [1]): 655.00 pg/mL | MCP-5 (Monocyte Chemoattractant Protein-5) (chronic mild stress rats; [1]): 0.77 pg/mL | MIP-1alpha (Macrophage Inflammatory Protein-1alpha) (chronic mild stress rats; [1]): 173.00 ng/mL | MIP-1gamma (Macrophage Inflammatory Protein-1gamma) (chronic mild stress rats; [1]): 7.95 ng/mL | MIP-2 (Macrophage Inflammatory Protein-2) (chronic mild stress rats; [1]): 0.08 pg/mL | MPO (Myeloperoxidase) (chronic mild stress rats; [1]): 20.80 ng/mL | NGAL (Lipocalin-2) (chronic mild stress rats; [1]): 0.17 ng/mL | Osteopontin (chronic mild stress rats; [1]): 396.00 ng/mL | SAP (Serum Amyloid P) (chronic mild stress rats; [1]): 133.00 µg/mL | SCF (Stem Cell Factor) (chronic mild stress rats; [1]): 14.85 pg/mL | SGOT (Serum Glutamic-Oxaloacetic Transaminase) (chronic mild stress rats; [1]): 0.21 µg/mL | TIMP-1 (Tissue Inhibitor of Metalloproteinase Type-1) (chronic mild stress rats; [1]): 0.16 ng/mL | TPO (Thrombopoietin) (chronic mild stress rats; [1]): 147.00 ng/mL | Tissue Factor (chronic mild stress rats; [1]): 0.10 ng/mL | VCAM-1 (Vascular Cell Adhesion Molecule-1) (chronic mild stress rats; [1]): 361.00 ng/mL | VEGF (Vascular Endothelial Cell Growth Factor) (chronic mild stress rats; [1]): 81.00 pg/mL | Apo A1 (Apolipoprotein A1) (chronic mild stress rats; [2]): 6.20 µg/mL | Beta-2 Microglobulin (chronic mild stress rats; [2]): 38.00 µg/mL | CRP (C Reactive Protein) (chronic mild stress rats; [2]): 1030.00 µg/mL | Clusterin (chronic mild stress rats; [2]): 108.00 µg/mL | Cystatin-C (chronic mild stress rats; [2]): 696.00 ng/mL | Eotaxin (chronic mild stress rats; [2]): 1072.00 pg/mL | FGF-9 (Fibroblast Growth Factor-9) (chronic mild stress rats; [2]): 1.70 ng/mL | Factor VII (chronic mild stress rats; [2]): 0.30 ng/mL | GCP-2 (Granulocyte Chemotactic Protein-2) (chronic mild stress rats; [2]): 0.29 ng/mL | GST-Mu (chronic mild stress rats; [2]): 1190.00 ng/mL | Growth Hormone (chronic mild stress rats; [2]): 3.10 ng/mL | IL-1beta (Interleukin-1beta) (chronic mild stress rats; [2]): 0.56 ng/mL | IL-2 (Interleukin-2) (chronic mild stress rats; [2]): 22.00 pg/mL | IL-5 (Interleukin-5) (chronic mild stress rats; [2]): 0.24 ng/mL | IL-7 (Interleukin-7) (chronic mild stress rats; [2]): 0.06 ng/mL | IL-10 (Interleukin-10) (chronic mild stress rats; [2]): 362.00 pg/mL | IL-18 (Interleukin-18) (chronic mild stress rats; [2]): 0.43 ng/mL | IP-10 (Inducible Protein-10) (chronic mild stress rats; [2]): 41.00 pg/mL | IgA (Immunoglobulin A) (chronic mild stress rats; [2]): 4.30 µg/mL | Insulin (chronic mild stress rats; [2]): 14.50 ulU/mL | LIF (Leukemia Inhibitory Factor) (chronic mild stress rats; [2]): 67.00 pg/mL | Leptin (chronic mild stress rats; [2]): 1.35 ng/mL | Lymphotactin (chronic mild stress rats; [2]): 63.00 pg/mL | M-CSF (Macrophage-Colony Stimulating Factor) (chronic mild stress rats; [2]): 1400.00 ng/mL | MCP-1 (Monocyte Chemoattractant Protein-1) (chronic mild stress rats; [2]): 1020.00 pg/mL | MCP-3 (Monocyte Chemoattractant Protein-3) (chronic mild stress rats; [2]): 659.00 pg/mL | MCP-5 (Monocyte Chemoattractant Protein-5) (chronic mild stress rats; [2]): 0.72 pg/mL | MDC (Macrophage-Derived Chemokine) (chronic mild stress rats; [2]): 0.12 pg/mL | MIP-1alpha (Macrophage Inflammatory Protein-1alpha) (chronic mild stress rats; [2]): 127.00 ng/mL | MIP-1beta (Macrophage Inflammatory Protein-1beta) (chronic mild stress rats; [2]): 0.01 pg/mL | MIP-1gamma (Macrophage Inflammatory Protein-1gamma) (chronic mild stress rats; [2]): 19.00 ng/mL | MIP-2 (Macrophage Inflammatory Protein-2) (chronic mild stress rats; [2]): 0.22 pg/mL | MIP-3beta (Macrophage Inflammatory Protein-3beta) (chronic mild stress rats; [2]): 29.70 ng/mL | MPO (Myeloperoxidase) (chronic mild stress rats; [2]): 533.00 ng/mL | Myoglobin (chronic mild stress rats; [2]): 520.00 ng/mL | NGAL (Lipocalin-2) (chronic mild stress rats; [2]): 0.15 ng/mL | OSM (Oncostatin M) (chronic mild stress rats; [2]): 19.10 ng/mL | Osteopontin (chronic mild stress rats; [2]): 255.00 ng/mL | RANTES (Regulation Upon Activation, Normal T-Cell Expressed and Secreted) (chronic mild stress rats; [2]): 10.60 pg/mL | SAP (Serum Amyloid P) (chronic mild stress rats; [2]): 403.00 µg/mL | SCF (Stem Cell Factor) (chronic mild stress rats; [2]): 11.30 pg/mL | SGOT (Serum Glutamic-Oxaloacetic Transaminase) (chronic mild stress rats; [2]): 8.53 µg/mL | TIMP-1 (Tissue Inhibitor of Metalloproteinase Type-1) (chronic mild stress rats; [2]): 0.24 ng/mL | TNF-alpha (Tumor Necrosis Factor-alpha) (chronic mild stress rats; [2]): 4.45 ng/mL | TPO (Thrombopoietin) (chronic mild stress rats; [2]): 119.00 ng/mL | Tissue Factor (chronic mild stress rats; [2]): 0.06 ng/mL | VCAM-1 (Vascular Cell Adhesion Molecule-1) (chronic mild stress rats; [2]): 353.00 ng/mL | VEGF (Vascular Endothelial Cell Growth Factor) (chronic mild stress rats; [2]): 78.00 pg/mL | reversal of stress-induced alterations in serum markers (chronic mild stress rats; listed as gaboxadol): significantly reversed the stress-induced alterations in serum markers; also recorded: dose dependently is able to reverse or partially reverse changes | pain response in phase 2 of the formalin pain model (formalin pain model): inhibit the pain response in phase 2

From US20070203216A1, “METHOD OF TREATING INFLAMMATORY DISEASES” (priority 2006, published 2007)
